Reference: article PMC11496873, “Synthesis, characterization, and in vitro–in ovo toxicological screening of silibinin fatty acids conjugates as prodrugs with potential biomedical applications” (Biomolecules and Biomedicine, 2024)
Read-outs that look alike come from different tables or passages of the source.

Columns and labels:
[1] = test system: chorioallantoic membrane (CAM); experiment: In ovo irritation test (HET-CAM); format: in vivo, chicken; settings: SIL-O and SIL-L at 100 µM
Method: The potential irritant effect of SIL-O and SIL-L (100 µM) was assessed in ovo, by applying the Hen’s Egg Test – Chorioallantoic Membrane (HET-CAM) test. The applied procedure was also described by Breban-Schwarzkopf et al.. Briefly, chicken-fertilized eggs were cleaned and disinfected with ethanol 70% and placed in an incubator at 37 ^∘C and 60% humidity. On the fourth day of incubation, a cut was performed on the eggs’ tips to allow the extraction of 6–7 mL albumen, while on the fifth day, a window was cut on the upper side of each egg and covered with adhesive tape. The experiment was performed on the tenth day of incubation, by applying the samples directly on the chorioallantoic membrane (CAM) and analyzing the occurrence of vascular impairments, such as hemorrhage, lysis, and coagulation for 5 min. Representative pictures were taken before the start of the experiment (T0) and at its end (T5) using the Discovery 8 SteREO Microscope equipped with an Axio CAM 105 color camera and processed in ZEN core version 3.8 software (Zeiss, Göttingen, Germany). The irritant potential was determined by calculating the irritation score (IS) for each sample and interpreted as presented in a previous publication.

MTT cell viability assay = format: cell-based
Method: The study was performed using three cell lines – H9c2(2-1) cardiomyoblasts (CRL-1446™), HepaRG hepatocytes (HPRGC10), and HaCaT keratinocytes (300493) – delivered as frozen vials by ATCC (Lomianki, Poland), ThermoFisher Scientific (Waltham, MA, USA), and CLS Cell Lines Service GmbH (Eppelheim, Germany), respectively. H9c2(2-1) and HaCaT cells were grown in DMEM, while HepaRG cells were cultured in William’s E Medium containing insulin from bovine pancreas (at a final concentration of 4 µg/mL) and hydrocortisone 21-hemisuccinate sodium salt (at a final concentration of 50 µM). Both media were supplemented with 10% FCS and 1% antibiotics (penicillin 100 U/mL and streptomycin 100 µg/mL). The cells were cultured at 37 ^∘C and 5% CO2, in a humidified incubator for cell culture, presenting normal proliferation during the experiments.
The impact of all tested compounds (1, 10, 25, 50, and 100 µM) on the viability of H9c2(2-1), HepaRG, and HaCaT cells was assessed using the MTT method which was performed according to a previous publication. Briefly, the cells cultured in 96-well plates were exposed to SIL, SIL-O, and SIL-L for 24 h. At the end of the treatment, the culture medium containing SIL, SIL-O, and SIL-L was removed and replaced with 100 µL/well of the specific culture media for the used cell lines (DMEM for H9c2(2-1) cells and HaCaT; William’s E Medium for HepaRG). Then, 10 µL of MTT reagent was added in every well, followed by 3 h of incubation of the plates at 37 ^∘C. The absorbance measurements were performed at 570 and 630 nm on Cytation 5 Microplate Reader (BioTek Instruments Inc., Winooski, VT, USA) following the addition of the MTT solubilization solution (a volume of 100 µL/well), and the plates’ incubation at room temperature for 30 min, protected from light.

HaCaT keratinocytes = experiment: Hoechst 33342 nuclear staining, apoptotic index; format: cell-based, human; settings: 100 µM, 24 h
Method: The influence of SIL, SIL-O, and SIL-L (100 µM) on nuclear morphology was evaluated by imaging the cells’ nuclei stained with Hoechst 33342. Shortly, at the end of the treatment, the H9c2(2-1), HepaRG, and HaCaT cells cultured in 12-well plates were treated with staining solution (500 µL/well, dilution of 1:2000 in PBS) for 10 min at room temperature, protected from light and washed with PBS before imaging which was performed on Cytation 1 Imaging Reader (BioTek Instruments Inc., Winooski, VT, USA). Image processing was conducted using the Gen5™ Microplate Data Collection and Analysis Software (BioTek Instruments Inc., Winooski, VT, USA). Apoptotic index (AI) was calculated by applying the formula previously reported: […]

H9c2(2-1) cells = experiment: Cell migration (scratch) assay; format: cell-based; settings: 24 h, normalized to control
Method: (§1) To investigate the effect of SIL, SIL-O, and SIL-L treatments on the migration of H9c2(2-1), HepaRG, and HaCaT cells, the scratch assay was performed as follows: (A) the cells (10^5 cells/mL/well) were seeded in Corning Costar 24-well plates and left to attach and reach a proper confluence, (B) a scratch was automatically made in every well using the AutoScratch™ Wound Making Tool (BioTek Instruments Inc., Winooski, VT, USA), (C) the cells were exposed to SIL and its FAs derivatives 1, 10, and 25 µM for 24 h, and (D) the wound area was imaged at two time points (0 and 24 h) using Cytation 1 Imaging Reader (BioTek® Instruments Inc., Winooski, VT, USA). The Gen5 ™ Microplate Data Collection and Analysis Software (BioTek® Instruments Inc., Winooski, VT, USA) was used to measure the wound widths in each image. The migration rates (%) for the applied treatments were determined using the formula presented below and normalized to control.
(§2) Migration rate (%) ═ [drawing 2] ×100, where:
(§3) At0 ═ wound width at 0 h,
(§4) At24 ═ wound width at 24 h.

HepaRG cells = experiment: Cell migration (scratch) assay; format: cell-based; settings: 24 h, normalized to control
Method: as §1, §2, §3, §4

HaCaT cells [2] = experiment: Cell migration (scratch) assay; format: cell-based, human; settings: 24 h
Method: as §1, §2, §3, §4

[3] = set-up: method as in PMID 19601873; settings: buffers with pH 1.0–7.8 and physiological media (plasma, intestinal and liver fluids); cited from earlier work
H9c2 cells = test system: H9c2 cells; set-up: method as in PMID 22818713; settings: concentrations up to 200 µM, 48 h; cited from earlier work
[4] = test system: HK-2 human renal tubular endothelial cells; set-up: method as in PMID 32103902; settings: HK-2 cells, 60 and 90 µM, 48 h; cited from earlier work
[5] = test system: Madin–Darby Canine Kidney (MDCK) cells; set-up: method as in PMID 20036447; settings: 800 µM, 2 h; cited from earlier work
[6] = test system: LX-2 human hepatic stellate cells; set-up: method as in PMID 27746612; settings: LX-2 cells, 10, 50 and 100 µM; cited from earlier work
HaCaT cells [7] = test system: HaCaT cells; set-up: method as in earlier work; settings: 24 h, cited from earlier work

CCCCCCCCCCCCOS(=O)(=O)[O-].[Na+] [SDS 1%, sodium dodecyl sulfate]
IS value (irritation score) ([1]; 5 min): 19.74
Observation (irritant classification) ([1]; based on IS value): Strong irritant

COc1cc(C2Oc3cc([C@H]4Oc5cc(O)cc(O)c5C(=O)[C@@H]4O)ccc3OC2CO)ccc1O (some centres unmarked) [SIL, Silibinin]
viability at 24 h (MTT cell viability assay; human, HepaRG hepatocytes, higher concentrations (reduction up to), normalized to control): ~80%
viability at 24 h, 1 µM (MTT cell viability assay; rat, H9c2(2-1) cardiomyoblasts, 1 µM, normalized to control): 128%
viability at 24 h, 100 µM (MTT cell viability assay; rat, H9c2(2-1) cardiomyoblasts, all tested concentrations (1, 10, 25, 50, 100 µM), compared to control): > 100%
apoptotic index (AI) (HaCaT keratinocytes): no significant changes
migration rate (H9c2(2-1) cells; 1 µM): 105.34%
migration rate (H9c2(2-1) cells; 25 µM): 119.8%
migration rate (HepaRG cells; 10 µM): around 50%
migration rate (HepaRG cells; 25 µM): around 50%
effect on migration (HaCaT cells [2]; 25 µM, compared to control): significant inhibition
effect on migration (HaCaT cells [2]; 1 and 10 µM): neither SIL, nor SIL-O or SIL-L affected
stability [3]: unstable
cytotoxicity (H9c2 cells): not cytotoxic
effect on viability [4]: significantly decreased the viability
cytotoxicity [5]: no cytotoxic effect
effect on migratory properties [6]: inhibitory effect

CCCCCCCC/C=C\CCCCCCCC(=O)Oc1c(-c2ccc(O)c(O)c2)oc2cc(O)cc(O)c2c1=O [quercetin-3-oleate]
enhancement in wound healing compared to control (HaCaT cells [7]; 0.1 µM (first concentration listed)): 47%
enhancement in wound healing compared to control (HaCaT cells [7]; 0.1 µM (second concentration listed)): 35%
enhancement in wound healing compared to control (HaCaT cells [7]; 1 µM): 51%
